Results taken from patent publication US20140194500A1 (Kookmin University Industry Academic Cooperation Foundation, priority 2013, published 2014).
Read-outs that look alike come from different tables or passages of the source.

Key:
[1] = target: T1, SARS coronavirus helicase nsP13 (Severe acute respiratory syndrome coronavirus, UniProt P0C6X7); assay type: biochemical
HCV viral helicase, NS3h = HCV viral helicase, NS3h (Hepatitis C virus genotype 1a, UniProt P27958); assay type: biochemical
HCV NS3h = HCV NS3h (Hepatitis C virus genotype 1a, UniProt P27958); assay type: biochemical
Chain of HCV NS3h (P27958 1193-1657): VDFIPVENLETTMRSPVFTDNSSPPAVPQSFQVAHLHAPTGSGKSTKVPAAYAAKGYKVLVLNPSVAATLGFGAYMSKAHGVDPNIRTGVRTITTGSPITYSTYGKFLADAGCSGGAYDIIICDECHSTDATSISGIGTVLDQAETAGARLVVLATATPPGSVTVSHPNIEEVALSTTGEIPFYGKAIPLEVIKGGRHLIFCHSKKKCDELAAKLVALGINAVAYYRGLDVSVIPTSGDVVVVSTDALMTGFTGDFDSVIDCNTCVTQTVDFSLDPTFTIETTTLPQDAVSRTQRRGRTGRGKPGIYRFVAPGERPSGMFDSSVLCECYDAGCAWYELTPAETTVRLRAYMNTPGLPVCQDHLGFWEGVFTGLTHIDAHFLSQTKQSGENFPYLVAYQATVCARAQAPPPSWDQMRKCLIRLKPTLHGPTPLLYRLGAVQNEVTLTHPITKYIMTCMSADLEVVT

MCF10A cells [2] = conditions: human
[3] = target: T1, SARS coronavirus helicase nsP13; assay: biochemical; conditions: for inhibition at 10 µM: read-out: inhibition of the ATPase activity of nsP13
MCF10A cells [4] = assay: Cytotoxicity: growth of normal breast epithelial MCF10A cells; conditions: 2 μM, counted every 24h for 3 days

Chain of HCV viral helicase, NS3h (P27958 1193-1657): as above

O=c1c(O)c(-c2cc(O)c(O)c(O)c2)oc2cc(O)cc(O)c12 [No. 6, myricetin]
inhibition of the dsDNA-unwinding activity of SARS helicase, nsP13 [1]: not inhibition of helicase activity | inhibition of the DNA unwinding activity of HCV viral helicase (HCV viral helicase, NS3h): did not suppress the helicase activity of HCV virus | suppression of the ATPase activity of the HCV viral helicase (HCV NS3h): did not seem to suppress the ATPase activity of HCV helicase protein | effect on the growth of MCF10A cells (viable cell number) (MCF10A cells [2]): did not affect the growth of MCF10A cells

O=c1cc(-c2ccc(O)cc2)oc2cc(O)c(O)c(O)c12 [No. 8, scutellarein]
IC50 [3]: 860 ± 480 nM | inhibition at 10 µM [3]: > 90% | effect on the growth of MCF10A cells (viable cell number) (MCF10A cells [4]): did not affect the growth of MCF10A cells

O=c1cc(-c2ccc(O)c(-c3c(O)cc(O)c4c(=O)cc(-c5ccc(O)cc5)oc34)c2)oc2cc(O)cc(O)c12 [No. 18, amentoflavone]
inhibition at 10 µM [3]: ~20%

CC1(C)CC[C@]2(C)CC=C3[C@]4(C)CC[C@H]5C(C)(C)[C@@H](O)CC[C@]5(C)[C@H]4CC[C@@]3(C)[C@@H]2C1 [No. 58, taraxerol]
inhibition at 10 µM [3]: ~20%

Diosmetin-7-O-Glc-Xyl [No. 35]
inhibition of the ATPase activity of nsP13 ([3]; 10 µM): around 20%
